Assay results from PMC12529881, “Quantitative analysis of inhibitor‐induced assembly disruption in human UDP‐GlcNAc 2‐epimerase using mass photometry” (Protein Science : A Publication of the Protein Society, 2025).
Where two headings read alike, the source gives them in different places. Values belong to the molecule of their own block, whether it stands above or below them.

Tests used:
[1] = target: T1, human UDP‐GlcNAc 2‐epimerase (GNE) (Homo sapiens, UniProt Q9Y223); assay: Mass photometry GNE assembly inhibition (inhibitor titration against 800 nM GNE); format: biochemical; details: for IC50 / effect on dimeric assembly: 800 nM GNE; for effect on dimeric assembly: absence of UDP‐GlcNAc; for Ki: from IC50 ^S (T) by modified Cheng–Prusoff equation (Equation S4), read-out: K i ^S (T)
T1 construct: The MNK subunit connects to the C‐terminus of the GNE subunit; made in house; host or cells: Escherichia coli BL21 (DE3)
T1 sequence (Q9Y223 1-405 limits assumed): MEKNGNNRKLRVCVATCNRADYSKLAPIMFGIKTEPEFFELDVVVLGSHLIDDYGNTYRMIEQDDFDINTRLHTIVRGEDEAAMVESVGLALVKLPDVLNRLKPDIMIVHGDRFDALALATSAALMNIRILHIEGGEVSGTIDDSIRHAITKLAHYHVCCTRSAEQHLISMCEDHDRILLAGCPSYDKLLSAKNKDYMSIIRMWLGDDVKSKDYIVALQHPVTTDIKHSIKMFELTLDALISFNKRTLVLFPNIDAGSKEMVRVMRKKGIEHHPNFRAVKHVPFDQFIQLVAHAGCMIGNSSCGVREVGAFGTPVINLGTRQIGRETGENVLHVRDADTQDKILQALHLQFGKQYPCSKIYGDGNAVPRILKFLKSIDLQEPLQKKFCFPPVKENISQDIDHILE
Procedure: All MP measurements were conducted using a OneMP (Refeyn) instrument equipped with a 525 nm green laser. To minimize background noise, the instrument was placed on an active vibration isolation system (Accurion i4 Series, Park Systems). High‐precision glass coverslips (Paul Marienfeld GmbH & Co. KG, Cat# 0107222) were thoroughly cleaned before use to ensure optimal measurement conditions. Prior to MP measurements, samples were incubated in phosphate buffer (DPBS[−|−], Gibco, Cat# 14190144) and low‐binding tubes for 30 min in a ThermoMixer C (Eppendorf, Cat# 5382000015) at 20°C to allow binding equilibrium to be reached. Immediately before measurement, a 50 nM working solution was prepared. Then, 5 μL of the working solution was added to a 15 μL DPBS (−|−) droplet on the glass coverslip, followed by mixing upon pipetting to ensure proper distribution before measurements began immediately. […] For the measurements, a regular field of view was used. Data acquisition was performed over a 60‐s detection period with manual focus adjustment. Data were recorded using the software AquireMP (2024 R2, Refeyn) and referenced against a glycinin mass standard in DPBS (−|−). The glycinin standard, derived from defatted soybean flour, forms characteristic trimers (160 kDa), hexamers (320 kDa), nonamers (480 kDa), and dodecamers (640 kDa). Purified and lyophilized glycinin was kindly provided by the group of Dr. Rumiana Dimova (Chen et al., [2020]; Mangiarotti et al., [2025]). Data analysis and graphical visualization were performed using DiscoverMP (2024 R2, Refeyn) and GraphPad Prism 10 (10.1.1, Dotmatics). All experiments were conducted in at least three independent replicates, each performed as technical triplicates.
Twofold serial dilutions of the inhibitors (500–7.81 μM) were titrated against a constant GNE concentration (800 nM), either in the presence or absence of UDP‐GlcNAc (100 μM). The GNE and substrate concentrations were selected based on titration experiments ensuring binding saturation and the establishment of an assembly equilibrium. Prior to measurements, samples were incubated for 30 min at 20°C to allow equilibrium to be reached. IC50 values were determined from protein fraction vs. inhibitor concentration plots and fitted using a Hill‐based logistic function (Equation S3). Subsequently, K i values for GNE inhibitors were derived from a Cheng–Prusoff equation accounting for allostery (Equation S4), detailed in Supporting Information S1.

[2] = target: T1, human UDP‐GlcNAc 2‐epimerase (GNE); assay: Mass photometry Schild experiments and OMAM global fit (GNE tetramer inhibition by C15); format: binding
Procedure: (§1) All MP measurements were conducted using a OneMP (Refeyn) instrument equipped with a 525 nm green laser. To minimize background noise, the instrument was placed on an active vibration isolation system (Accurion i4 Series, Park Systems). High‐precision glass coverslips (Paul Marienfeld GmbH & Co. KG, Cat# 0107222) were thoroughly cleaned before use to ensure optimal measurement conditions. Prior to MP measurements, samples were incubated in phosphate buffer (DPBS[−|−], Gibco, Cat# 14190144) and low‐binding tubes for 30 min in a ThermoMixer C (Eppendorf, Cat# 5382000015) at 20°C to allow binding equilibrium to be reached. Immediately before measurement, a 50 nM working solution was prepared. Then, 5 μL of the working solution was added to a 15 μL DPBS (−|−) droplet on the glass coverslip, followed by mixing upon pipetting to ensure proper distribution before measurements began immediately. This approach provided high reproducibility in our results. For the measurements, a regular field of view was used. Data acquisition was performed over a 60‐s detection period with manual focus adjustment. Data were recorded using the software AquireMP (2024 R2, Refeyn) and referenced against a glycinin mass standard in DPBS (−|−). The glycinin standard, derived from defatted soybean flour, forms characteristic trimers (160 kDa), hexamers (320 kDa), nonamers (480 kDa), and dodecamers (640 kDa). Purified and lyophilized glycinin was kindly provided by the group of Dr. Rumiana Dimova (Chen et al., [2020]; Mangiarotti et al., [2025]). Data analysis and graphical visualization were performed using DiscoverMP (2024 R2, Refeyn) and GraphPad Prism 10 (10.1.1, Dotmatics). All experiments were conducted in at least three independent replicates, each performed as technical triplicates.
To assess the binding affinity of inhibitors to GNE, modified Schild experiments were performed using MP. Serial dilutions of UDP‐GlcNAc (800 μM to 100 nM) were titrated against a constant GNE concentration (800 nM) in the presence of varying concentrations of inhibitor C15 (200 μM to 2 nM). Enzyme and substrate concentrations were chosen based on prior titration experiments (Figure 2c,g) to ensure a stable oligomeric equilibrium. Inhibitor concentrations were selected around the IC50 to enable accurate response characterization. Samples were incubated for 30 min at 20°C to ensure equilibration before measurement. EC50 values were obtained from substrate titration curves (tetramer fraction vs. UDP‐GlcNAc concentration), fitted using a Hill‐based function (Equation S3). The resulting EC50 values in the presence of inhibitor (EC50,Inh) were converted into logarithmic concentration ratios (log(CR‐1)) and plotted against the corresponding logarithmic inhibitor concentrations to generate a Schild plot. Data points were then fitted using a linear Schild equation (Equation S5), as described in the Supporting Information S1. Further cooperative factors were obtained from fitting the substrate concentration‐dependent response curves globally with an OMAM model (Equation S6) (Jakubík et al., [2020]).

[3] = target: T1, human UDP‐GlcNAc 2‐epimerase (GNE); assay: Mass photometry affinity measurements of GNE subunits / substrate titration; format: binding
Procedure: as §1
To determine the intermolecular protein affinities of GNE subunits, their assembly distribution was assessed using MP experiments. In the absence of substrate, serial GNE dilutions (50 μM to 50 nM) were performed to evaluate GNE subunit interactions. In the presence of UDP‐GlcNAc, intermolecular affinity changes were assessed through two titration approaches: First, different concentrations of UDP‐GlcNAc (500–7.81 μM) were titrated against a fixed concentration of GNE (0.8 μM). Second, different concentrations of GNE (0.2–10 μM) were titrated against a fixed concentration of UDP‐GlcNAc (100 μM). KD values were obtained from binding curves (Figure S4), fitted using a Hill‐based logistic model (Equation S1) (Fineberg et al., [2020]). The following dissociation constants were determined: K D ^0 (M:M) and K D ^0 (D:D) in the absence of UDP‐GlcNAc, K D ^S (D:D) and K D ^S (M:M) in the presence of UDP‐GlcNAc.

[4] = system: GNE; set-up: method as in Chen et al., 2016; details: ref Chen et al., 2016; cited from earlier work
[5] = target: the molecule itself; assay: mass photometry
[6] = target: the molecule itself; assay: mass photometry; remark: listed apart in the source
[7] = 100 μM UDP‐GlcNAc, DPBS pH 7.4, 20°C, Hill n fixed 1.3, read-out: IC50 ^S (T), GNE tetramer destabilization
[8] = absence of UDP-GlcNAc, read-out: IC50^0(D), GNE dimer inhibition
[9] = presence of 100 µM UDP-GlcNAc, read-out: IC50^S(D), GNE dimer inhibition
[10] = substrate titration against 800 nM GNE

IC50 [1, 7]: 3.1 ± 1.2 µM | IC50 [1, 8]: 21 ± 2.6 µM | IC50 [1, 9]: 173 ± 100 µM | tetramer inhibition at single concentration ([1]; 31.25 μM C15, 800 nM GNE, 100 μM UDP‐GlcNAc): full tetramer inhibition | Ki ([1]; 100 μM UDP‐GlcNAc): 0.0826 ± 0.0397 µM | K B (OMAM) fold lower than K B,app (Schild) [2]: ~ 28 fold | operational cooperativity factor β ([2]; OMAM fit): ≈ 0 | operational efficacy τ I (inhibitor) ([2]; OMAM fit): 0.02 | binding cooperativity factor ɑ ([2]; OMAM fit, between C15 and substrate binding): 0.02 | Kd ([2]; OMAM global fit (Equation S6), read-out: inhibitor affinity K B): 0.0252 µM | Schild slope m ([2]; linear region 0.8–10 μM C15, Equation S5): 1.1 | Kd ([2]; x‐intercept of linear Schild fit (linear region 0.8–10 μM C15), 800 nM GNE, read-out: apparent affinity K B,app): ~0.7 µM
Molecule: COc1c(Br)cc(Br)cc1/C=C/c1cc(C(F)(F)F)[nH]c(=O)n1 [C15, (E)‐4‐(3,5‐dibromo‐2‐methoxystyryl)‐6‐(trifluoromethyl)pyrimidin‐2(1H)‐one]
effect on dimeric assembly [1]: significantly disrupted the dimeric assembly

operational efficacy τ S (substrate) ([2]; OMAM fit): 17.6 | increase of dimer–dimer affinity by substrate binding [3]: 98 fold | Kd ([3]; from tetramer curve, substrate titration against 800 nM GNE, Equation S2, read-out: substrate affinity K S): 34.6 ± 3 µM | Kd ([3]; presence of 100 μM UDP‐GlcNAc, fit Equation S1, read-out: K D ^S (D:D), GNE dimer–dimer interaction): 0.0981 ± 0.0091 µM | Kd ([3]; presence of 100 μM UDP‐GlcNAc, fit Equation S1, read-out: K D ^S (M:M), GNE monomer–monomer interaction): 0.0372 ± 0.0075 µM | Kd ([3]; presence of 100 μM UDP‐GlcNAc, mean calculated by law of mass action, read-out: K D ^S Calc.(D:D)): 0.221 ± 0.0272 µM | Kd ([3]; presence of 100 μM UDP‐GlcNAc, mean calculated by law of mass action, read-out: K D ^S Calc.(M:M)): 0.0653 ± 0.0124 µM | Hill coefficient n of tetramer fraction [3, 10]: 1.3 | maximal response E max (maximal tetramer fraction) [3, 10]: 68.3%
Molecule: CC(=O)N[C@H]1[C@@H](OP(=O)([O-])OP(=O)([O-])OC[C@H]2O[C@@H](n3ccc(=O)[nH]c3=O)[C@H](O)[C@@H]2O)O[C@H](CO)[C@@H](O)[C@@H]1O.[Na+].[Na+] [UDP‐GlcNAc, Uridine diphosphate N‐acetyglucosamine disodium salt]
K M of GNE [4]: 33.1 ± 4.2 µM

Further lines, the molecule ahead of its results:

Molecule: O=c1nc(/C=C/c2cc([N+](=O)[O-])ccc2Cl)cc(C(F)(F)F)[nH]1 [C13, (E)‐4‐(2‐chloro‐5‐nitrostyryl)‐6‐(trifluoromethyl)pyrimidin‐2(1H)‐one]
IC50 [1, 7]: 19.4 ± 4.2 µM | IC50 [1, 8]: > 1000 µM | IC50 [1, 9]: 472 ± 42.5 µM | effect on dimeric assembly [1]: significantly disrupted the dimeric assembly | Ki ([1]; 100 μM UDP‐GlcNAc): 0.508 ± 0.182 µM

B1: GNE (UDP-GlcNAc 2-epimerase), monomer UDP-GlcNAc 2-epimerase domain (protein)
chain: T1 sequence (Q9Y223 1-405 limits assumed)
Kd [5]: 0.0126 µM

B2: GNE (UDP-GlcNAc 2-epimerase), dimer UDP-GlcNAc 2-epimerase domain (protein)
chain: T1 sequence (Q9Y223 1-405 limits assumed)
Kd [6]: 9.6 µM
